{
  "source": "ChEMBL document CHEMBL1154671",
  "about": "“Isoquinoline-based analogs of the cancer drug clinical candidate tipifarnib as anti-Trypanosoma cruzi agents” (Bioorg Med Chem Lett, 2009)",
  "data": [
    {"test_system": "Trypanosoma cruzi", "experiment": "Antitrypanosomal activity against Trypanosoma cruzi Tulahuen infected in mouse 3T3 cells", "type": "functional, organism-based", "conditions": "NIH3T3", "units": {"EC50": "nM"}, "values": [
      {"smiles": "COC(c1ccc(Cl)cc1)(c1ccc2cnccc2c1)c1cncn1C", "note": "(stereo not given)", "EC50": 120},
      {"smiles": "COC(c1ccc(Cl)cc1)(c1ccc2cncc(-c3c(F)cccc3F)c2c1)c1cncn1C", "note": "(stereo not given)", "EC50": 0.9},
      {"smiles": "COC(c1ccc(Cl)cc1)(c1ccc2cncc(-c3cccc(Cl)c3)c2c1)c1cncn1C", "note": "(stereo not given)", "EC50": 0.5},
      {"smiles": "CC[C@@H]([C@H](C)O)n1ncn(-c2ccc(N3CCN(c4ccc(OC[C@@H]5CO[C@@](Cn6cncn6)(c6ccc(F)cc6F)C5)cc4)CC3)cc2)c1=O", "note": "[POSACONAZOLE]", "EC50": 0.3},
      {"smiles": "Cn1cncc1[C@@](N)(c1ccc(Cl)cc1)c1ccc2c(c1)c(-c1cccc(Cl)c1)cc(=O)n2C", "note": "[TIPIFARNIB]", "EC50": 4}
    ]}
  ]
}
